Measurements from US20090304692A1, “TRIAZINE COMPOUNDS AS PI3 KINASE AND MTOR INHIBITORS” (Wyeth, priority 2008, published 2009).
Several values for one entry are separate records, joined by “and”; a condition that tells them apart may be missing. Equal values may be shown once. Read-outs that look alike come from different tables or passages of the source.

Key:
PI3K-γ = PI3K-γ (Homo sapiens, UniProt P48736); assay: PI3K-gamma fluorescence polarization assay; conditions: read-out: IC50 PI3Kγ
PI3K-α = PI3K-α (Homo sapiens, UniProt P42336); assay: PI3K-alpha fluorescence polarization assay; conditions: read-out: IC50 PI3Kα
PI3K-α, sequence (P42336 whole entry, species assumed): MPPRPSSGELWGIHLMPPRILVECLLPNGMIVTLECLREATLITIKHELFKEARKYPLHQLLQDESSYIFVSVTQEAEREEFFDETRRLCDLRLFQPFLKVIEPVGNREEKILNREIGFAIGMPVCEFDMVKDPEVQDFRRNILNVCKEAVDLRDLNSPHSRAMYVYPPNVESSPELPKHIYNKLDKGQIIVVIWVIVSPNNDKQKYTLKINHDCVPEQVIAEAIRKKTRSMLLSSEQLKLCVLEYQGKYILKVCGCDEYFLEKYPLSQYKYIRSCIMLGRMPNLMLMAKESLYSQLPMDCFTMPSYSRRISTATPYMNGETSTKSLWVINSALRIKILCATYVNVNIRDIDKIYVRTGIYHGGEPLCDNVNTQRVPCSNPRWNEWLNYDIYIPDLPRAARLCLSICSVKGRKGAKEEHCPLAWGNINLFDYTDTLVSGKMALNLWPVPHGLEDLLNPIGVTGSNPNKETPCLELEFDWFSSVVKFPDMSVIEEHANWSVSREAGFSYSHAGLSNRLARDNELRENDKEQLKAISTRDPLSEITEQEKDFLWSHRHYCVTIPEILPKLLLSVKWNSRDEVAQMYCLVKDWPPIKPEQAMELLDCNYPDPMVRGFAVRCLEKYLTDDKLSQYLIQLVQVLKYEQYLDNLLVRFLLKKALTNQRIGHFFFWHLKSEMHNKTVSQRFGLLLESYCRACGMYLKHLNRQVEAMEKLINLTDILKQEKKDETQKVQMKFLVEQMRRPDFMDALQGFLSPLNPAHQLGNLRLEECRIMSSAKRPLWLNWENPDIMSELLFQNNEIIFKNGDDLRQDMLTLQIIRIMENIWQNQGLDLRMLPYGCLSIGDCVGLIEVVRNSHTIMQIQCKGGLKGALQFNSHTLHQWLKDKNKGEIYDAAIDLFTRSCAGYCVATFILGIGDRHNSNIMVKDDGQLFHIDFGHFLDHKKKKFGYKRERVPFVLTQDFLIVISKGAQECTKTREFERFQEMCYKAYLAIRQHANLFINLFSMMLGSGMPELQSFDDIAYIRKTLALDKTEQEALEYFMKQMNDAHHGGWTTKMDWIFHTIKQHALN
PI3K-α, sequence (P27986 whole entry partner, species assumed): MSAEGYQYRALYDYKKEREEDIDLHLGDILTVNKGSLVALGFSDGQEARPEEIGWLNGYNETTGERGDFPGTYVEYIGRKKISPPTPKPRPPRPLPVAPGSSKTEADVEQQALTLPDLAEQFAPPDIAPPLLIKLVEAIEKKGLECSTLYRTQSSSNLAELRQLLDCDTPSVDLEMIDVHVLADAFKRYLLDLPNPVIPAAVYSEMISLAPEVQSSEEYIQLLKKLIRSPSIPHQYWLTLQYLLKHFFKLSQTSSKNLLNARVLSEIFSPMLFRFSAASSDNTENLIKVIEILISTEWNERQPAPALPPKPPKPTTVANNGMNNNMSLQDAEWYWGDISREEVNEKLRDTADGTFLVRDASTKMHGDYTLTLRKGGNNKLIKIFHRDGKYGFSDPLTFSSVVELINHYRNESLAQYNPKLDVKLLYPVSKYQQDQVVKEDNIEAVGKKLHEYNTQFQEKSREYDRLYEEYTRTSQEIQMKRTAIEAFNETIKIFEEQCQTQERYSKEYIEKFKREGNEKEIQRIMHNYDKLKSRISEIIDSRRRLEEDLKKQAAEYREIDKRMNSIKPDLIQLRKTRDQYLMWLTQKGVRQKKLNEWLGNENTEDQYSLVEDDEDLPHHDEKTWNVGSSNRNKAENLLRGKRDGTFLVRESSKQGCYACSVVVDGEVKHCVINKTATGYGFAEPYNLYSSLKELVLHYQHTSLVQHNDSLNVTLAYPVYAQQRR

Human mTOR (FLAG-TOR) = Human mTOR (FLAG-TOR) (Homo sapiens, UniProt P42345); assay: mTOR kinase assay (DELFIA format, purified enzyme); format: biochemical; conditions: read-out: IC50 mTOR
Human mTOR (FLAG-TOR), sequence (P42345 1360-2549 limits assumed): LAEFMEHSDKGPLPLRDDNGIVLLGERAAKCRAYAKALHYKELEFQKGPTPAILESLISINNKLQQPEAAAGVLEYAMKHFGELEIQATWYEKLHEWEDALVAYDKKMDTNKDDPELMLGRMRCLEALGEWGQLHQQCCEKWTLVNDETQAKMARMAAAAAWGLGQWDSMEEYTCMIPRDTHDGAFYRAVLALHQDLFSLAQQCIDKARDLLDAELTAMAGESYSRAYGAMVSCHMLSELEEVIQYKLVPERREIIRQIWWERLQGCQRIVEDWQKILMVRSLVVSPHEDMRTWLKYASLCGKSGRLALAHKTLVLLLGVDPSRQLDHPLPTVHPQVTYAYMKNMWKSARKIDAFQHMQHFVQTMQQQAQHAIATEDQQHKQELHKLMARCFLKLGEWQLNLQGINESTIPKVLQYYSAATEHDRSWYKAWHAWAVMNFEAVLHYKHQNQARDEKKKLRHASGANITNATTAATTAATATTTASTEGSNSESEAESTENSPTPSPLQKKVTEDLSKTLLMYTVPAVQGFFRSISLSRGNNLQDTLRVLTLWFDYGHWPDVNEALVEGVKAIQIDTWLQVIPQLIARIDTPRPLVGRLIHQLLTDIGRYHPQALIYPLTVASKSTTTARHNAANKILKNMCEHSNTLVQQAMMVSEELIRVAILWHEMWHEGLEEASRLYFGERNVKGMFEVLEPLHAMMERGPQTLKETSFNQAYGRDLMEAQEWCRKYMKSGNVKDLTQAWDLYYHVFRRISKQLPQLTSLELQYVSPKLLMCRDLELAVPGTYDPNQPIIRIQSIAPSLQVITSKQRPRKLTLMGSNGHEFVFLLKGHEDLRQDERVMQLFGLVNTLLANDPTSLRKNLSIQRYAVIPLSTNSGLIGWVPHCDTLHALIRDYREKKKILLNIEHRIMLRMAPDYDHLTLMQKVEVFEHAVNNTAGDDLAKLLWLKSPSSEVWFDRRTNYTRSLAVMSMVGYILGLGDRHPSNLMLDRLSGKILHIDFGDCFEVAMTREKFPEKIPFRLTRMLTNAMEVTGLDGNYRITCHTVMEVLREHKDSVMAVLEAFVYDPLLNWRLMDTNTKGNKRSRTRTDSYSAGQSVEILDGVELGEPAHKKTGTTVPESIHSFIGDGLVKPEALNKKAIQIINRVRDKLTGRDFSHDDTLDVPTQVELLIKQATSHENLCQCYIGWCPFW

PI3K-γ, sequence (P48736 whole entry, species assumed): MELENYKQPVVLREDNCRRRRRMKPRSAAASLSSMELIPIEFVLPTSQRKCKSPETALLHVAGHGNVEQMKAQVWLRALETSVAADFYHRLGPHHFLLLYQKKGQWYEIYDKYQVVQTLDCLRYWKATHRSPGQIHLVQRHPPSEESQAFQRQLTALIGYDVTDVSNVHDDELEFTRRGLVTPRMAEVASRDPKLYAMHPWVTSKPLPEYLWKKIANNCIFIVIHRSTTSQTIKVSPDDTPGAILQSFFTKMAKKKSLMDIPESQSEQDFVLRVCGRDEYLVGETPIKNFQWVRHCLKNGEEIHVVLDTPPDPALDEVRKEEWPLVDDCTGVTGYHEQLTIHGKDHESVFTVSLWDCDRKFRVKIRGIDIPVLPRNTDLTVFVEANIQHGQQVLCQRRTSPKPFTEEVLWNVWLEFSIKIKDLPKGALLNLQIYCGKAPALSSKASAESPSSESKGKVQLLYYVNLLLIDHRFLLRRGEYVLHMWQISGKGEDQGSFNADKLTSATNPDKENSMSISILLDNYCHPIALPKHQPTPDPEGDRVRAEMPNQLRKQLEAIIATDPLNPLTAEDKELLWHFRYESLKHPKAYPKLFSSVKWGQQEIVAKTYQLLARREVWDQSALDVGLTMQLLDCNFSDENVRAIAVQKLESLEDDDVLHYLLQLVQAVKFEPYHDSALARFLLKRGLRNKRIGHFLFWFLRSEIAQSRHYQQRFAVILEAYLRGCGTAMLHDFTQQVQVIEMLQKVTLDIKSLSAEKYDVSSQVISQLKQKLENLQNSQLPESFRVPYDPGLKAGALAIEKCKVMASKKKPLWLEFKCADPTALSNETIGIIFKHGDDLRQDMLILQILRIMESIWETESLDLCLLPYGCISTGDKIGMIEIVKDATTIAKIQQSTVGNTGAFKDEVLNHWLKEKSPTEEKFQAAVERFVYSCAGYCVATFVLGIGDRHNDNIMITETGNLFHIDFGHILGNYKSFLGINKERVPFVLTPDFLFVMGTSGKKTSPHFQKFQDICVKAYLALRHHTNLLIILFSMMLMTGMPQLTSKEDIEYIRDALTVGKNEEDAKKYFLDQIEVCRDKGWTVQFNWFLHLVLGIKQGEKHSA

Compound | IC50 (PI3K-γ) | IC50 (PI3K-α) | IC50 (Human mTOR (FLAG-TOR)) | IC50 (PI3K-γ; listed as 531) | IC50 (PI3K-α; listed as 531) | IC50 (PI3K-γ; listed as 530) | IC50 (PI3K-γ; listed as 526) | IC50 (PI3K-α; listed as 526) | IC50 (PI3K-α; listed as 528)
CC(=O)N1CC2CN(c3nc(-c4ccc(NC(=O)Nc5ccncc5)cc4)nc(N4CCOCC4)n3)CC(C1)O2 [Example 292, 1-{4-[4-(7-acetyl-9-oxa-3,7-diazabicyclo[3.3.1]non-3-yl)-6-morpholin-4-yl-1,3,5-triazin-2-yl]phenyl}-3-pyridin-4-ylurea] | 3690 nM | 1500 nM | 70 nM and 68 nM | – | – | – | – | – | –
CS(=O)(=O)N1CC2CN(c3nc(-c4ccc(NC(=O)Nc5ccncc5)cc4)nc(N4CCOCC4)n3)CC(C1)O2 [Example 293, 1-(4-{4-[7-(methylsulfonyl)-9-oxa-3,7-diazabicyclo[3.3.1]non-3-yl]-6-morpholin-4-yl-1,3,5-triazin-2-yl}phenyl)-3-pyridin-4-yl urea] | 533 nM | 764 nM | 500 nM and 470 nM | – | – | – | – | – | –
Cc1ccc(-c2nc(-c3ccc(NC(=O)Nc4ccncc4)cc3)nc(N3CCOCC3)n2)cc1 [Example 340, 1-{4-[4-(4-methylphenyl)-6-morpholin-4-yl-1,3,5-triazin-2-yl]phenyl}-3-pyridin-4-ylurea] | 706 nM | 92 nM | 46 nM and 49.5 nM | – | – | 706 nM | – | – | –
Cc1ccc(-c2nc(-c3ccc(NC(=O)Nc4ccc(N5CCN(C)CC5)cc4)cc3)nc(N3CCOCC3)n2)cc1 [Example 343, 1-{4-[4-(4-methylphenyl)-6-morpholin-4-yl-1,3,5-triazin-2-yl]phenyl}-3-[4-(4-methylpiperazin-1-yl)phenyl]urea] | 6700 nM | 97 nM | 40 nM and 47.5 nM | – | – | – | 6700 nM | 96.5 nM | –
COC(=O)c1ccc(NC(=O)Nc2ccc(-c3nc(-c4ccc(C)cc4)nc(N4CCOCC4)n3)cc2)cc1 [Example 344, methyl 4-[({4-[4-(4-methylphenyl)-6-morpholin-4-yl-1,3,5-triazin-2-yl]phenyl}carbamoyl)amino]benzoate] | 4140 nM | 1610 nM | 1500 nM and 1600 nM | – | – | – | – | – | 1610 nM
C[C@@H]1COCCN1c1nc(-c2ccc(NC(=O)Nc3ccncc3)cc2)nc(N2CCOC[C@H]2C)n1 [Example 397, 1-(4-(4,6-bis((R)-3-methylmorpholino)-1,3,5-triazin-2-yl)phenyl)-3-(pyridin-4-yl)urea] | 2070 nM | 173 nM | 0.16 nM | – | – | – | – | – | –
C[C@@H]1COCCN1c1nc(-c2ccc(NC(=O)Nc3cccnc3)cc2)nc(C2CCOCC2)n1 [Example 420, (R)-1-(4-(4-(3-methylmorpholino)-6-(tetrahydro-2H-pyran-4-yl)-1,3,5-triazin-2-yl)phenyl)-3-(pyridin-3-yl)urea] | 4360 nM | 593 nM | 0.63 nM | – | – | – | – | – | –
C[C@@H]1COCCN1c1nc(-c2ccc(NC(=O)Nc3ccc(N4CCC(N(C)C)CC4)cc3)cc2)nc(N2CCOC[C@H]2C)n1 [Example 449, 1-(4-(4,6-bis((R)-3-methylmorpholino)-1,3,5-triazin-2-yl)phenyl)-3-(4-(4-(dimethylamino)piperidin-1-yl)phenyl)urea] | 1640 nM | 287 nM | 1.9 nM | – | – | – | – | – | –
O=C(Nc1ccncc1)Nc1ccc(-c2nc(N3CCOCC3)nc(N3C4COCC(O)C3C4)n2)cc1 (stereo not drawn) [Example 480, 1-{4-[4-(5-hydroxy-3-oxa-7-azabicyclo[4.1.1]oct-7-yl)-6-morpholin-4-yl-1,3,5-triazin-2-yl]phenyl}-3-pyridin-4-ylurea] | 53 nM | 13 nM | 2.9 nM | – | – | – | – | – | –
O=C(Nc1ccc(-c2nc(N3CCOCC3)nc(N3C4CCC3COC4)n2)cc1)Nc1ccnnc1 [Example 483, 1-{4-[4-morpholin-4-yl-6-(3-oxa-8-azabicyclo[3.2.1]oct-8-yl)-1,3,5-triazin-2-yl]phenyl}-3-pyridazin-4-ylurea] | 150 nM | 28.5 nM | 1.55 nM | – | – | – | – | – | –
CC(C)c1nc(-c2ccc(NC(=O)Nc3ccc(I)cc3)cc2)nc(N2CCOCC2)n1 [Example 490, 1-(4-iodophenyl)-3-{4-[4-(1-methylethyl)-6-morpholin-4-yl-1,3,5-triazin-2-yl]phenyl}urea] | 1080 nM | 586 nM | 11.6 nM | – | – | – | – | – | –
CC(C)c1nc(-c2ccc(NC(=O)Nc3ccc(-c4cnc(N(C)C)nc4)cc3)cc2)nc(N2CCOCC2)n1 [Example 493, 1-{4-[2-(dimethylamino)pyrimidin-5-yl]phenyl}-3-{4-[4-(1-methylethyl)-6-morpholin-4-yl-1,3,5-triazin-2-yl]phenyl}urea] | 1080 nM | 2920 nM | 32.5 nM | – | – | – | – | – | –
C[C@H]1COCCN1c1nc(-c2ccc(NC(=O)Nc3ccc(C(=O)O)cc3)cc2)nc(N2CCOC[C@@H]2C)n1 [Example 549, 4-{[(4-{4,6-bis[(3S)-3-methylmorpholin-4-yl]-1,3,5-triazin-2-yl}phenyl)carbamoyl]amino}benzoic acid] | 4540 nM | 724 nM | 26.5 nM | – | – | – | – | – | –
Cc1ccc(-c2nc(-c3ccc(NC(=O)Nc4cccc(C(=O)N5CCN(C)CC5)c4)cc3)nc(N3CCOCC3)n2)cc1 [Example 576, 1-{4-[4-(4-methylphenyl)-6-morpholin-4-yl-1,3,5-triazin-2-yl]phenyl}-3-{3-[(4-methylpiperazin-1-yl)carbonyl]phenyl}urea] | 2080 nM | 761 nM | 140 nM | – | – | – | – | – | –
COC(=O)c1cccc(NC(=O)Nc2ccc(-c3nc(-c4ccc(C)cc4)nc(N4CCOCC4)n3)cc2)c1 [Example 578, methyl 3-[({4-[4-(4-methylphenyl)-6-morpholin-4-yl-1,3,5-triazin-2-yl]phenyl}carbamoyl)amino]benzoate] | 2510 nM | 2410 nM | 2100 nM | – | – | – | – | – | –
Cc1ccc(-c2nc(-c3ccc(NC(=O)Nc4cccc(C(=O)N(C)CCN(C)C)c4)cc3)nc(N3CCOCC3)n2)cc1 [Example 580, N-[2-(dimethylamino)ethyl]-N-methyl-3-[({4-[4-(4-methylphenyl)-6-morpholin-4-yl-1,3,5-triazin-2-yl]phenyl}carbamoyl)amino]benzamide] | 1320 nM | 465 nM | 100 nM | – | – | – | – | – | –
COC(=O)c1cccc(NC(=O)Nc2ccc(-c3nc(-c4cccs4)nc(N4CCOCC4)n3)cc2)c1 [Example 582, methyl 3-({[4-(4-morpholin-4-yl-6-thiophen-2-yl-1,3,5-triazin-2-yl)phenyl]carbamoyl}amino)benzoate] | 1090 nM | 513 nM | 230 nM | – | – | – | – | – | –
Cc1ccc(-c2nc(-c3ccc(NC(=O)Nc4cccc(C(=O)NCCN(C)C)c4)cc3)nc(N3CCOCC3)n2)cc1 [Example 583, N-[2-(dimethylamino)ethyl]-3-[({4-[4-(4-methylphenyl)-6-morpholin-4-yl-1,3,5-triazin-2-yl]phenyl}carbamoyl)amino]benzamide] | 718 nM | 123 nM | 48 nM | – | – | – | – | – | –

The remaining compounds from weak to strong by IC50 (PI3K-γ), led by results:

IC50 (PI3K-γ) | IC50 (PI3K-α) | IC50 (Human mTOR (FLAG-TOR)) | IC50 (PI3K-γ; listed as 531) | IC50 (PI3K-α; listed as 531) | IC50 (PI3K-γ; listed as 530) | IC50 (PI3K-γ; listed as 526) | IC50 (PI3K-α; listed as 526) | IC50 (PI3K-α; listed as 528) | Compound
504 nM | 269 nM | 100 nM | – | – | – | – | – | – | COC(=O)c1ccc(NC(=O)Nc2ccc(-c3nc(-c4cccs4)nc(N4CCOCC4)n3)cc2)cc1 [Example 560, methyl 4-[({4-[4-morpholin-4-yl-6-(2-thienyl)-1,3,5-triazin-2-yl]phenyl}carbamoyl)amino]benzoate]
485 nM | 71 nM | 90 nM and 80 nM | 484 nM | 71.5 nM | – | – | – | – | Cc1ccc(-c2nc(-c3ccc(NC(=O)Nc4ccc(N5CCC(N(C)C)CC5)cc4)cc3)nc(N3CCOCC3)n2)cc1 [Example 339, 1-{4-[4-(dimethylamino)piperidin-1-yl]phenyl}-3-{4-[4-(4-methylphenyl)-6-morpholin-4-yl-1,3,5-triazin-2-yl]phenyl}urea]
461 nM | 114 nM | 37 nM | – | – | – | – | – | – | CCc1nc(-c2ccc(NC(=O)Nc3cccc(C(=O)OC)c3)cc2)nc(N2CCOCC2)n1 [Example 581, methyl 3-({[4-(4-ethyl-6-morpholin-4-yl-1,3,5-triazin-2-yl)phenyl]carbamoyl}amino)benzoate]
378 nM | 87.5 nM | 405 nM | – | – | – | – | – | – | Cc1ccc(-c2nc(-c3ccc(NC(=O)Nc4ccc(C(=O)N5CCCCC5)cc4)cc3)nc(N3CCOCC3)n2)cc1 [Example 555, 1-{4-[4-(4-methylphenyl)-6-morpholin-4-yl-1,3,5-triazin-2-yl]phenyl}-3-[4-(piperidin-1-ylcarbonyl)phenyl]urea]
375 nM | 74.5 nM | 8 nM | – | – | – | – | – | – | O=C(Nc1ccc(C(=O)O)cc1)Nc1ccc(-c2nc(N3CCCOCC3)nc(N3CCOCC3)n2)cc1 [Example 569, 4-[({4-[4-morpholin-4-yl-6-(1,4-oxazepan-4-yl)-1,3,5-triazin-2-yl]phenyl}carbamoyl)amino]benzoic acid]
197 nM | 333 nM | 0.125 nM | – | – | – | – | – | – | COC(=O)c1ccc(NC(=O)Nc2ccc(-c3nc(-c4ccccc4)nc(N4CCOCC4)n3)cc2)cc1 [Example 538, methyl 4-({[4-(4-morpholin-4-yl-6-phenyl-1,3,5-triazin-2-yl)phenyl]carbamoyl}amino)benzoate]
180 nM | 42 nM | 3.4 nM | – | – | – | – | – | – | COC(CNc1nc(-c2ccc(NC(=O)Nc3cccnc3)cc2)nc(N2CCOCC2)n1)OC [Example 488, 1-(4-{4-[(2,2-dimethoxyethyl)amino]-6-morpholin-4-yl-1,3,5-triazin-2-yl}phenyl)-3-pyridin-3-ylurea]
131 nM | 65 nM | 12 nM | – | – | – | – | – | – | CCc1nc(-c2ccc(NC(=O)Nc3cccc(C(=O)O)c3)cc2)nc(N2CCOCC2)n1 [Example 585, 3-({[4-(4-ethyl-6-morpholin-4-yl-1,3,5-triazin-2-yl)phenyl]carbamoyl}amino)benzoic acid]
65 nM | 11 nM | 2.3 nM | – | – | – | – | – | – | O=C(Nc1ccc(-c2nc(N3CCOCC3)nc(N3CCOCC3)n2)cc1)Nc1ccnnc1 [Example 481, 1-[4-(4,6-dimorpholin-4-yl-1,3,5-triazin-2-yl)phenyl]-3-pyridazin-4-ylurea]
